Patent publication US12263171B2, “7-, 8-, and 10-substituted amino triazolo quinazoline derivatives as adenosine receptor antagonists, pharmaceutical compositions and their use” (Merck Sharp & Dohme LLC, priority 2018, dated 2025)
pIC50: −log10 of the molar value.

Experiments:
[1] = target: human A2a adenosine receptor (Homo sapiens (Human), UniProt P29274); test: A2a receptor affinity radioligand binding assay ([3H] SCH58261, membranes from HEK293 or CHO cells); conditions: unstarred values: radioligand binding
Summary of the method: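 Displacement of tritiated SCH58261 (working dilution 4 nM) from recombinant human A2a receptor membranes (HEK293 or CHO), 60 min at room temperature in Tris pH 7.4/MgCl2 buffer after 15–30 min compound preincubation. Scintillation counting after filtration; normalized percent effect fitted 4-parameter logistic for IC50.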

[2] = target: human A2b adenosine receptor (Homo sapiens (Human), UniProt P29275); test: A2B antagonism in cAMP cell-based assay (LANCE cAMP, HEK293 cells, 600 nM adenosine); conditions: for pIC50: values marked *: cAMP cell-based assay
Chain of human A2b adenosine receptor (P29275 whole entry): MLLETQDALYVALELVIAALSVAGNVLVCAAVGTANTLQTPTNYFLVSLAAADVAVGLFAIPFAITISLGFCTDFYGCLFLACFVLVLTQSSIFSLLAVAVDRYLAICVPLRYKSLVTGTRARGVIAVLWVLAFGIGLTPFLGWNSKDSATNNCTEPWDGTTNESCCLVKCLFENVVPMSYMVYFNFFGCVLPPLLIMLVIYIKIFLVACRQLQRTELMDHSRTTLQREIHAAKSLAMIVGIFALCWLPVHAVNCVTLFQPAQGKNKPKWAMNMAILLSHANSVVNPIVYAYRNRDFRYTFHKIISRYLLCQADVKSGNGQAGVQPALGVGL

Chain of human A2a adenosine receptor (P29274 whole entry): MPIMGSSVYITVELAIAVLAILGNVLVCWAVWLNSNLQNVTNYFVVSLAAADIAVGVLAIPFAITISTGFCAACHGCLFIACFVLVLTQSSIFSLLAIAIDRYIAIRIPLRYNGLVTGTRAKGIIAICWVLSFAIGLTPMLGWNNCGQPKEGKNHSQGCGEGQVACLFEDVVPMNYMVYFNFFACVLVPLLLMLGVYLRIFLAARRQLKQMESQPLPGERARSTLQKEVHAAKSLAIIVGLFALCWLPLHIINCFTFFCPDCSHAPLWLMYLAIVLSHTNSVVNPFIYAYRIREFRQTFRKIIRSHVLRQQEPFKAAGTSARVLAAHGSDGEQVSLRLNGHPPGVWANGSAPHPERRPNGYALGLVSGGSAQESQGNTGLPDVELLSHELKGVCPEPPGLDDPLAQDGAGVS

Row | SMILES | pIC50 [1] | pIC50 [2] | *A2B cAMP % inh. @ 10000 nM ([2]; @ 10000 nM, marked *) [% inh. @ 10000 nM*] | *A2B cAMP ^ % @ 10000 nM ([2]; @ 10000 nM, marked *, printed with ^ and without inh.) [% @ 10000 nM*]
1 | COc1cccc2c1nc(N)n1nc([C@@H]3CCCN(c4ccc(=O)n(CC(F)(F)F)c4C)C3)nc21 [Example 94, (R)-5-(3-(5-amino-7-methoxy-[1,2,4]triazolo[1,5-c]quinazolin-2-yl)piperidin-1-yl)-6-methyl-1-(2,2,2-trifluoroethyl)pyridin-2(1H)-one] | 8.62 | 6.68 | – | –
2 | COc1cccc2c1nc(N)n1nc([C@@H]3CCCN(c4ccc(=O)n(C5CC5)c4)C3)nc21 [Example 95, (R)-5-(3-(5-amino-7-methoxy-[1,2,4]triazolo[1,5-c]quinazolin-2-yl)piperidin-1-yl)-1-cyclopropylpyridin-2(1H)-one] | 8.64 | 7.23 | – | –
3 | COc1cccc2c1nc(N)n1nc([C@@H]3CCCN(c4ccc(=O)n(CC(F)(F)F)c4)C3)nc21 [Example 97, (R)-5-(3-(5-amino-7-methoxy-[1,2,4]triazolo[1,5-c]quinazolin-2-yl)piperidin-1-yl)-1-(2,2,2-trifluoroethyl)pyridin-2(1H)-one] | 8.36 | 7.20 | – | –
4 | COc1cccc2c1nc(N)n1nc([C@@H]3CCCN(c4cnccc4C(F)(F)F)C3)nc21 [Example 108, (R)-7-methoxy-2-(1-(4-(trifluoromethyl)pyridin-3-yl)piperidin-3-yl)-[1,2,4]triazolo[1,5-c]quinazolin-5-amine] | 7.92 | – | 18 | –
5 | COc1cccc2c1nc(N)n1nc([C@@H]3CCCN(c4ncc(C(F)(F)F)cn4)C3)nc21 [Example 109, (R)-7-methoxy-2-(1-(5-(trifluoromethyl)pyrimidin-2-yl)piperidin-3-yl)-[1,2,4]triazolo[1,5-c]quinazolin-5-amine] | 7.28 | – | – | 22
6 | COc1cccc2c1nc(N)n1nc([C@@H]3CCCN(c4ncc(F)cn4)C3)nc21 [Example 110, (R)-2-(1-(5-fluoropyrimidin-2-yl)piperidin-3-yl)-7-methoxy-[1,2,4]triazolo[1,5-c]quinazolin-5-amine] | 8.66 | 6.14 | – | –
7 | COc1cccc2c1nc(N)n1nc([C@@H]3CCCN(c4nccc(C(F)(F)F)n4)C3)nc21 [Example 111, (R)-7-methoxy-2-(1-(4-(trifluoromethyl)pyrimidin-2-yl)piperidin-3-yl)-[1,2,4]triazolo[1,5-c]quinazolin-5-amine] | 7.79 | – | 10 | –
8 | COc1cccc2c1nc(N)n1nc([C@@H]3CCCN(c4ccc(C(F)(F)F)nc4)C3)nc21 [Example 112, (R)-7-methoxy-2-(1-(6-(trifluoromethyl)pyridin-3-yl)piperidin-3-yl)-[1,2,4]triazolo[1,5-c]quinazolin-5-amine] | 8.46 | 6.67 | – | –

The next compounds have a higher pIC50 [1] than those just listed; values first:

Row | pIC50 [1] | pIC50 [2] | *A2B cAMP % inh. @ 10000 nM ([2]; @ 10000 nM, marked *) [% inh. @ 10000 nM*] | *A2B cAMP ^ % @ 10000 nM ([2]; @ 10000 nM, marked *, printed with ^ and without inh.) [% @ 10000 nM*] | SMILES
9 | 8.74 | 6.11 | – | – | CCn1ccc(N2CCC[C@@H](c3nc4c5cccc(OC)c5nc(N)n4n3)C2)cc1=O [Example 91, (R)-4-(3-(5-amino-7-methoxy-[1,2,4]triazolo[1,5-c]quinazolin-2-yl)piperidin-1-yl)-1-ethylpyridin-2(1H)-one]
10 | 8.77 | 6.43 | – | – | COc1cccc2c1nc(N)n1nc([C@@H]3CCCN(c4cccc(C(F)(F)F)c4)C3)nc21 [Example 114, (R)-7-methoxy-2-(1-(3-(trifluoromethyl)phenyl)piperidin-3-yl)-[1,2,4]triazolo[1,5-c]quinazolin-5-amine]
11 | 8.92 | 7.74 | – | – | COc1cccc2c1nc(N)n1nc([C@@H]3CCCN(c4ccccn4)C3)nc21 [Example 119]
12 | 9.22 | 6.68 | – | – | COc1cccc2c1nc(N)n1nc([C@@H]3CCCN(c4cncc(F)c4)C3)nc21 [Example 113, (R)-2-(1-(5-fluoropyridin-3-yl)piperidin-3-yl)-7-methoxy-[1,2,4]triazolo[1,5-c]quinazolin-5-amine]
